Assay results reported in patent US8268893B2, “Use of dapsone as a neuroprotector in cerebral infarction” (Universidad Autonoma Metropolitana, priority 2003, dated 2012).
Values joined by “and” are separate entries in the source; they are usually repeats but may differ in a detail not shown here. Identical values can stand only once.

What was measured:
[1] = system: brain stroke model produced by occlusion of the middle cerebral artery; experiment: Neurological functional scale in rats after permanent occlusion of the middle cerebral artery; format: in vivo, rat
Method: Dapsone was evaluated as neuroprotector in the brain stroke model produced by occlusion of the middle cerebral artery. The drug was suspended in a suitable vehicle.
3 groups of 5 animals each were treated with: Saline isotonic solution (551, control group), Dapsone (12.5 mg/kg) and Dapsone (9.375 mg/kg) injected by intraperitoneal route, 30 minutes after the occlusion of the middle cerebral artery, as described below.
The permanent selective brain ischemic was produced in the animals through introducing a suture thread intraluminal through the carotid artery. All animals received continuous anesthesia during the surgical procedure with halotane 1.5%, through a face mask. […]
During the 96 hours after the ischemic procedure, the animals were neurologically evaluated using a functional scale, each 24 hours.
For the neurological scale and percentage of the lesion volume in rats, the statistical significance was determined with the Kruskal-Wallis test, followed by the U test of MannWhitney.
The results of the neurological evaluation in rats are shown in FIG. 1, where the scores of the neurological test as a function of time can be observed, after producing the stroke in the rats. The results are expressed as the average of 4 independent experiments. […]

[2] = system: patients with acute brain stroke for thrombo-embolism; experiment: Randomized, double-blind, placebo-controlled clinical trial in patients with acute brain stroke, NIH scale; format: in vivo, human
Method: This study evaluated the neuroprotector effect of dapsone in patients that, having suffered an acute brain stroke for thrombo-embolism, were admitted to the Emergency Services of the National Institute of Neurology and Neurosurgery “Manuel Velasco Suarez”. Dapsone was administered in a single dose of 200 mg in suspension, orally. […] Dapsone was administered blinded to 15 patients, while other 15 patients were administered with an anti-acid suspension, as a placebo medication. Patients were randomly allocated into one of the treatment groups, using random numbers, generated by a pocket calculator. Both medications were administered during the first twelve hours after the brain stroke. As result of these procedures, the clinical trial was randomized, double-blind and placebo-controlled. The evaluation of clinical signs and symptoms was performed in blind by an expert neurologist, with the NIH scale, that quantifies the intensity of disabilities caused by the brain stroke. Said scale was applied at the time the patient entered the study (day zero) and 2, 6 and 30 days after the brain stroke. A stroke is considered as moderately severe or severe, when the NIH rated a value higher than seven. The NIH scale results in the two groups of patients were statistically analyzed with analysis of variance analysis (ANOVA) using as co-variables the NIH scale at the admittance day (day zero), as well as the gender, age, blood pressure and other important clinical variables for the patient's performance. The results in patients with acute thrombo-embolic brain stroke, are shown in FIG. 3, which presents the scores of the neurological scale (NIH) as a function of time (in days) after administering dapsone or the placebo. The results are expressed as the average of 15 patients per group +/−the standard error.

[3] = Stability of dapsone oral suspension; format: physicochemical; conditions: refrigeration at 4° C.
[4] = system: brain stroke model produced by occlusion of the middle cerebral artery; experiment: Ischemic lesion volume (histology) in rats 96 hours after occlusion of the middle cerebral artery; format: in vivo, rat; conditions: for reduction of ischemic lesion volume in comparison with the control group: 96 hours
Method: Dapsone was evaluated as neuroprotector in the brain stroke model produced by occlusion of the middle cerebral artery. The drug was suspended in a suitable vehicle. 3 groups of 5 animals each were treated with: Saline isotonic solution (551, control group), Dapsone (12.5 mg/kg) and Dapsone (9.375 mg/kg) injected by intraperitoneal route, 30 minutes after the occlusion of the middle cerebral artery, as described below. The permanent selective brain ischemic was produced in the animals through introducing a suture thread intraluminal through the carotid artery. All animals received continuous anesthesia during the surgical procedure with halotane 1.5%, through a face mask. Animals were placed in dorsal decubitus position, fixed and shaved in the anterior cervical region to make an incision in the middle line from the sternum towards the region of the sternohiodeous muscle, to its side rim, identifying in this side the middle rim of the sternocleidomastoideus and the superficial cervical aponeurosis in its deep leaf, same that was cut to leave exposed the common carotid blow and inside the caudal belly of the digastric. A cutting dissection of the common carotid was performed, until the hypoglose loop. The carotid bifurcation was identified, external carotid and its occipital and thyroid branches, the two latter were joined with mono-filament of 8-0 as well as with electrocoagulation for its later cut. The internal carotid was dissected in a length of approximately 5 mm and at that time the pterigo-palatine artery was identified. A microchip was placed or it was joined with mono-filament 6-0. Once the flux was stopped through these artery affluent, the mono-filament nylon 3-0 was introduced towards the internal carotid artery, through the stub of the external carotid artery, for a length of 17 mm as of the bifurcation. The wound was closed, and the animal was left to recover, with water and food ad libitum. In all cases, ischemia was verified by macroscopic observation and for the position of the thread. At the end of the 96 hours of observation, animals were sacrificed with an overdose of sodium pentobarbital by intraperitoneal route, and their brains were extracted by craniectomy. Once extracted, the brains were fixed with anhydrous alcohol during two weeks. The usual histological process was performed, as well as sections of 10 μm, storing a section each 200 μm. […] The area of each tissue section was determined using a digital analysis system and a photographic amplifier. […] Each section was assessed for 3 determinations: A) total area, including ventriculus B) Ventricular area C) Ischemic area, according to the pathologist's review. […] The results are expressed as the average+/-standard error of 4 independent experiments.

Nc1ccc(S(=O)(=O)c2ccc(N)cc2)cc1 [dapsone]
reduction in the severity of the neurological symptoms in comparison with the control group [1]: 50% | recovery from the ischemic lesion in the neurological test compared to the control group ([1]; 9.375 and 12.5 mg/kg ip, evaluated each 24 hours for 96 hours, p<0.05): recovered better from the ischemic lesion, significantly | side effects ([2]; for the dose used): No side effects | effective dose ([2]; model not stated, printed after the patient result): 0.013 mmol/kg | clinical improvement (in words) ([2]; patients, 200 mg orally): significant clinical improvement | clinical improvement of neurological symptoms (NIH scale), in average ([2]; patients, single 200 mg oral dose within first twelve hours after stroke): 67% | stability of the suspension [3]: stable in refrigeration at 4° C., for up to one month | reduction of ischemic lesion volume in comparison with the control group ([4]; 9.375 mg/kg ip 30 minutes after occlusion): 93% | reduction of ischemic lesion volume in comparison with the control group ([4]; 12.5 mg/kg ip 30 minutes after occlusion, 12.5 mg/kg): 91% and 90% | efficacy to reduce the volume of brain damage produced by the stroke ([4]; dose of 9.325 mg/kg): 93%
